What was measured:
Test in all cases: fluorescence titration and Job plot
[1] = test system: m-tel24 (DNA, G4) TTGGGTTAGGGTTAGGGTTAGGGA; details: 100 mM K+ (KCl) plus 20 mM potassium phosphate; pH 7, 20 °C, Job total 2 µM; highest fluorescence; groove binding suggested by induced CD
[2] = test system: ds12 (DNA, duplex) CGCGAATTCGCG; details: 100 mM K+ (KCl) plus 20 mM potassium phosphate; pH 7, 20 °C, Job total 2 µM; lowest fluorescence enhancement
[3] = test system: M2 (DNA, G4) TAGGGACGGGCGGGCAGGGT; details: 100 mM K+ (KCl) plus 20 mM potassium phosphate; pH 7, 20 °C, Job total 2 µM; medium fluorescence enhancement

- binding [1]: yes
- binding [2]: yes
- binding [3]: yes
SMILES: CN(C)CCCNC(=O)c1ccc2[nH]c3c([nH]c2c1)c1c(=O)n(CCCN(C)C)c(=O)c2ccc4c(=O)n(CCCN(C)C)c(=O)c3c4c21

— PMC8508963 (2021)
